{"source": "paper PMC12369479", "about": "(Journal of Experimental Botany, 2025)", "key": {"WT ZmADK3": {"molecular_target": "WT ZmADK3 (Zea mays, UniProt A0A1D6E5Z5)", "sequence (A0A1D6E5Z5 2-344)": "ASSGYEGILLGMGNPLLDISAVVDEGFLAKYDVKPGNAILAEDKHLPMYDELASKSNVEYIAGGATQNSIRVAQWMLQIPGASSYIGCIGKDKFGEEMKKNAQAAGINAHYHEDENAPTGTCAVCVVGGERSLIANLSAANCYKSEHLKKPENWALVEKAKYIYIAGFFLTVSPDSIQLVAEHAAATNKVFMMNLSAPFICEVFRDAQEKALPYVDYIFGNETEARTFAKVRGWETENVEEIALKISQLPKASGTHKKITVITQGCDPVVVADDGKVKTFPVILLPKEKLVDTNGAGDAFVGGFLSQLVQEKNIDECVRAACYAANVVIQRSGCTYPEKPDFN", "experiment": "Binding affinity by MST", "details": "read-out: KD ATP"}, "PpADK1": {"molecular_target": "T1, PpADK1 (Physcomitrium patens, UniProt O49923)", "T1 construct": "made in house; host or cells: E. coli T7 Express Iq", "experiment": "Binding affinity by microscale thermophoresis (MST)", "parameters": "species or system Physcomitrella patens", "details": "50 mM HEPES pH 7.5, 1 mM MgCl2, read-out: KD", "description": "(§1) The microscale thermophoresis (MST) method was used to determine the binding affinity of various ribosides for ZmADK2 and PpADK1. Proteins were fluorescently labeled with RED-tris-NTA dye (www.nanotemper-technologies.com) using a 1:1 dye/protein molar ratio. The labeled protein was adjusted to 100–300 nM in 50 mM HEPES buffer pH 7.5, 1 mM MgCl2, and 0.2% Tween. Measurements were performed in premium capillaries on a Monolith NT.115 instrument at 30 °C with 5 s/30 s/5 s laser off/on/off times, respectively, with continuous sample fluorescence recording. Thermal stability was measured by nano-differential scanning fluorimetry on a Prometheus NT.48 instrument (www.nanotemper-technologies.com) in various buffers covering a pH (7.0–9.5) and temperature range (25–95 °C), with a heating rate of 1 °C min^–1, and using NT melting control software. Protein unfolding was measured by detecting the temperature-induced change in tryptophan fluorescence intensity at emission wavelengths of 330±5 nm and 350±5 nm. The melting temperature (Tm) was deduced from the maximum of the first derivative of the fluorescence ratios F350/F330."}, "ZmADK2": {"molecular_target": "ZmADK2 (Zea mays, UniProt B4FFH8, T4S)", "sequence (B4FFH8 1-342 T4S)": "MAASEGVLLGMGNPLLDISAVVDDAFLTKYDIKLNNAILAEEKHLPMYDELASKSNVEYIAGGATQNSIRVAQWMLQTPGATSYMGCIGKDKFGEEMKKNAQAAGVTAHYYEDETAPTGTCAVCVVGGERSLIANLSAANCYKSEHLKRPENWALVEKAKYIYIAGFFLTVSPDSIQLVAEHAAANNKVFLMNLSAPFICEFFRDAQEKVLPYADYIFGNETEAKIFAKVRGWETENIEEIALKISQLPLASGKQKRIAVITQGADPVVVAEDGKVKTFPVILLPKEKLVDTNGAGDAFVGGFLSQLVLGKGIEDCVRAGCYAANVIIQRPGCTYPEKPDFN", "experiment": "Binding affinity by microscale thermophoresis (MST)", "details": "MST, 50 mM HEPES pH 7.5, 1 mM MgCl2, first or only binding event, read-out: KD", "description": "as §1"}, "[1]": {"system": "plant ADKs from lupin and Arabidopsis", "parameters": "method as in Guranowski, 1979; Moffatt et al., 2000", "details": "ref Guranowski, 1979, Moffatt et al., 2000, read-out: Km for ATP; cited from earlier work"}, "ZmADK3 D19A variant": {"molecular_target": "ZmADK3 D19A variant (Zea mays, UniProt A0A1D6E5Z5, D19A)", "sequence (A0A1D6E5Z5 entry or part of it D19A)": "as the sequence (A0A1D6E5Z5 2-344) above, with D18A counted along it", "experiment": "Binding affinity by MST", "details": "D19A; MST; read-out: KD ATP", "description": "(§2) All ZmADK3 mutants were cloned by 30 cycle PCRs using tail-to-tail oriented phosphorylated primers, with the mutation being located at the 5′ end of one of the primers. The following mutants were cloned using the primers given in Supplementary Table S1: D19A, R132A, N222A, E225A, N295A, and D299A. The products were treated with DpnI restriction enzyme, gel purified, and ligated using T4 DNA ligase (www.thermofisher.com). Clones were transformed into T7 express I^qE. coli competent cells.\nas §1"}, "ZmADK3 E225A variant": {"molecular_target": "ZmADK3 E225A variant (Zea mays, UniProt A0A1D6E5Z5, E225A)", "sequence (A0A1D6E5Z5 entry or part of it E225A)": "as the sequence (A0A1D6E5Z5 2-344) above, with E224A counted along it", "experiment": "Binding affinity by MST", "description": "as §2, §1"}, "ZmADK3 R132A variant": {"molecular_target": "ZmADK3 R132A variant (Zea mays, UniProt A0A1D6E5Z5, R132A)", "sequence (A0A1D6E5Z5 entry or part of it R132A)": "as the sequence (A0A1D6E5Z5 2-344) above, with R131A counted along it", "experiment": "Binding affinity by MST", "details": "R132A; MST; read-out: KD ATP", "description": "as §2, §1"}, "ZmADK3 D299A variant": {"molecular_target": "ZmADK3 D299A variant (Zea mays, UniProt A0A1D6E5Z5, D299A)", "sequence (A0A1D6E5Z5 entry or part of it D299A)": "as the sequence (A0A1D6E5Z5 2-344) above, with D298A counted along it", "experiment": "Binding affinity by MST", "details": "D299A; MST; read-out: KD ATP", "description": "as §2, §1"}, "ZmADK3 N222A variant": {"molecular_target": "ZmADK3 N222A variant (Zea mays, UniProt A0A1D6E5Z5, N222A)", "sequence (A0A1D6E5Z5 entry or part of it N222A)": "as the sequence (A0A1D6E5Z5 2-344) above, with N221A counted along it", "experiment": "Binding affinity by MST", "description": "as §2, §1"}, "ZmADK3 N295A variant": {"molecular_target": "ZmADK3 N295A variant (Zea mays, UniProt A0A1D6E5Z5, N295A)", "sequence (A0A1D6E5Z5 entry or part of it N295A)": "as the sequence (A0A1D6E5Z5 2-344) above, with N294A counted along it", "experiment": "Binding affinity by MST", "details": "N295A; MST; read-out: KD ATP", "description": "as §2, §1"}, "five plant ADKs": {"system": "five plant ADKs", "experiment": "Thermal stability by nanoDSF", "parameters": "species or system Zea mays, Physcomitrella patens", "details": "all isoforms, ATP complexes at 4 mM", "description": "as §1\nSupplementary Fig. S1. Thermal stability, molecular and kinetic properties of ZmADK2. (A)\nThermal stability of five plant ADKs measured by nanoDSF. The curves for apoforms (in 150 mM\nHEPES pH 7.2, 100 mM NaCl, 10 mM MgCl2) and ATP complexes at 4 mM concentrations are shown. […]"}}}
{"smiles": "Nc1ncnc2c1ncn2[C@@H]1O[C@H](COP(=O)(O)OP(=O)(O)OP(=O)(O)O)[C@@H](O)[C@H]1O", "note": "[ATP]", "values": [{"measurement": "Kd", "setting": "WT ZmADK3", "value": "2.9 ± 1.1", "unit": "mM"}, {"measurement": "Kd", "setting": "PpADK1", "value": "2.9 ± 0.7", "unit": "mM"}, {"measurement": "Kd", "setting": "ZmADK2", "value": "2.2 ± 0.62", "unit": "mM"}, {"measurement": "Km", "setting": "[1]", "value": "300 to 400", "unit": "µM"}, {"measurement": "Kd", "setting": "ZmADK3 D19A variant", "value": "4.9 ± 1.5", "unit": "mM"}, {"measurement": "lower affinity for ATP compared with the WT", "setting": "ZmADK3 E225A variant; E225A variant of ZmADK3", "value": "~ 6 fold"}, {"measurement": "Kd", "setting": "ZmADK3 E225A variant; E225A, MST, read-out: KD ATP", "value": "16 ± 4.5", "unit": "mM"}, {"measurement": "Kd", "setting": "ZmADK3 R132A variant", "value": "8.5 ± 2.1", "unit": "mM"}, {"measurement": "Kd", "setting": "ZmADK3 D299A variant", "value": "9.1 ± 2.1", "unit": "mM"}, {"measurement": "lower affinity for ATP compared with the WT", "setting": "ZmADK3 N222A variant; N222A variant of ZmADK3", "value": 7, "unit": "fold"}, {"measurement": "Kd", "setting": "ZmADK3 N222A variant; N222A, MST, read-out: KD ATP", "value": "20.7 ± 4.4", "unit": "mM"}, {"measurement": "Kd", "setting": "ZmADK3 N295A variant", "value": "41.8 ± 10", "unit": "mM"}, {"measurement": "stabilizing effect on melting temperature (Tm)", "setting": "five plant ADKs", "value": "up to 4 °C"}]}
